Assays:
Experiment in all cases: relative viability (nuclei count vs DMSO), 5 days (fraction); higher = more cells survive
AZ628 + Palbociclib = compound: CC1=C(C=C(C=C1)NC(=O)C2=CC(=CC=C2)C(C)(C)C#N)NC3=CC4=C(C=C3)N=CN(C4=O)C [AZ628] + CC(=O)c1c(C)c2cnc(Nc3ccc(N4CCNCC4)cn3)nc2n(C2CCCC2)c1=O [Palbociclib] (partner 0.5 µM)
How it was run: (§1)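 Relative viability is defined as nuclei in treated wells over nuclei in vehicle wells. Duplicate plates were run and medians reported. Lung cancer cell lines in 1536-well plates were dosed by pin tool one day after seeding, with one drug or with a fixed anchor-drug dose plus five library-drug doses (not always all listed) in √10 steps, and nuclei were counted after 5 days.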

QS11 + Dasatinib = compound: C1CC2=C(C1)C=C(C=C2)OC3=NC(=C4C(=N3)N(C=N4)CC5=CC=C(C=C5)C6=CC=CC=C6)N[C@@H](CC7=CC=CC=C7)CO [QS11] + Cc1nc(Nc2ncc(C(=O)Nc3c(C)cccc3Cl)s2)cc(N2CCN(CCO)CC2)n1 [Dasatinib] (partner 0.075 µM)
How it was run: as §1

AZ628 + Pemetrexed = compound: CC1=C(C=C(C=C1)NC(=O)C2=CC(=CC=C2)C(C)(C)C#N)NC3=CC4=C(C=C3)N=CN(C4=O)C [AZ628] + Nc1nc2[nH]cc(CCc3ccc(C(=O)N[C@@H](CCC(=O)O)C(=O)O)cc3)c2c(=O)[nH]1 [Pemetrexed] (partner 0.2 µM)
How it was run: as §1

AZ628 + Navitoclax = compound: CC1=C(C=C(C=C1)NC(=O)C2=CC(=CC=C2)C(C)(C)C#N)NC3=CC4=C(C=C3)N=CN(C4=O)C [AZ628] + CC1(C)CCC(c2ccc(Cl)cc2)=C(CN2CCN(c3ccc(C(=O)NS(=O)(=O)c4ccc(N[C@H](CCN5CCOCC5)CSc5ccccc5)c(S(=O)(=O)C(F)(F)F)c4)cc3)CC2)C1 [Navitoclax] (partner 0.5 µM)
How it was run: as §1

Cell Line | relative viability (AZ628 + Palbociclib; first compound 0.08 µM) | relative viability (AZ628 + Palbociclib; first compound 0.253 µM) | relative viability (AZ628 + Palbociclib; first compound 0.8 µM) | relative viability (AZ628 + Palbociclib; first compound 2.53 µM) | relative viability (AZ628 + Palbociclib; first compound 8 µM) | relative viability (QS11 + Dasatinib; first compound 0.08 µM) | relative viability (QS11 + Dasatinib; first compound 0.253 µM) | relative viability (QS11 + Dasatinib; first compound 2.53 µM) | relative viability (QS11 + Dasatinib; first compound 8 µM) | relative viability (AZ628 + Pemetrexed; first compound 0.08 µM) | relative viability (AZ628 + Pemetrexed; first compound 0.253 µM) | relative viability (AZ628 + Pemetrexed; first compound 0.8 µM) | relative viability (AZ628 + Pemetrexed; first compound 2.53 µM) | relative viability (AZ628 + Pemetrexed; first compound 8 µM) | relative viability (AZ628 + Navitoclax; first compound 0.08 µM) | relative viability (AZ628 + Navitoclax; first compound 0.253 µM) | relative viability (AZ628 + Navitoclax; first compound 0.8 µM) | relative viability (AZ628 + Navitoclax; first compound 2.53 µM) | relative viability (AZ628 + Navitoclax; first compound 8 µM) | relative viability (QS11 + Dasatinib; first compound 0.8 µM)
HCC-366 | 0.383 | 0.352 | 0.328 | 0.445 | 0.163 | 0.7 | 0.616 | 0.578 | 0.576 | 0.156 | 0.215 | 0.225 | 0.169 | 0.161 | 1.01 | 1.09 | 0.997 | 0.97 | 0.598 | –
HCC-827 | 0.474 | 0.456 | 0.357 | 0.487 | 0.311 | 0.244 | 0.26 | 0.305 | 0.328 | 0.258 | 0.209 | 0.256 | 0.314 | 0.226 | 0.986 | 1 | 0.954 | 1.02 | 0.811 | 0.386
HOP-62 | 0.49 | 0.473 | 0.491 | 0.492 | 0.314 | 0.695 | 0.667 | 0.615 | 0.706 | 0.311 | 0.343 | 0.305 | 0.409 | 0.271 | 1.09 | 1.17 | 1.02 | 1.1 | 0.729 | 0.708
IA-LM | – | – | – | – | – | – | – | – | – | – | – | – | – | – | 1.15 | 0.716 | 0.641 | 0.761 | 0.0904 | –
LC-2-ad | 0.473 | 0.51 | 0.424 | 0.468 | 0.373 | 0.535 | 0.537 | 0.693 | 0.79 | 0.3 | 0.29 | 0.262 | 0.274 | 0.266 | 0.406 | 0.348 | 0.589 | 0.54 | 0.347 | 0.614
LCLC-103H | 0.478 | 0.48 | 0.44 | 0.314 | 0.417 | 0.403 | 0.511 | 0.601 | 0.576 | 0.423 | 0.464 | 0.445 | 0.437 | 0.402 | – | – | – | – | – | 0.447
LK-2 | 0.911 | 0.849 | 0.412 | 0.736 | 0.366 | 0.287 | 0.321 | 0.268 | 0.306 | 0.273 | 0.221 | 0.263 | 0.343 | 0.15 | 1.07 | 0.887 | 0.847 | 0.818 | 0.634 | 0.317
LOU-NH91 | 0.535 | 0.526 | 0.547 | 0.557 | 0.539 | 0.56 | 0.51 | 0.628 | 0.602 | 0.345 | 0.384 | 0.332 | 0.36 | 0.339 | 0.681 | 0.713 | 0.713 | 0.654 | 0.4 | 0.524
LU99A | 0.366 | 0.368 | 0.381 | 0.442 | 0.369 | 0.463 | 0.587 | 0.684 | 0.681 | 0.191 | 0.186 | 0.215 | 0.215 | 0.175 | 0.856 | 0.859 | 0.865 | 0.895 | 0.296 | 0.685
NCI-H358 | 0.126 | 0.131 | 0.136 | 0.142 | 0.123 | 0.144 | 0.171 | 0.393 | 0.656 | 0.172 | 0.159 | 0.152 | 0.142 | 0.142 | – | – | – | – | – | 0.189
NCI-H522 | 0.947 | 0.954 | 0.842 | 1.04 | 0.75 | 0.857 | 0.826 | 0.975 | 1.07 | 0.903 | 1.02 | 0.874 | 0.93 | 0.645 | – | – | – | – | – | 0.922
NCI-H596 | – | – | – | – | – | 0.591 | 0.586 | 0.611 | 0.586 | 0.496 | 0.485 | 0.521 | 0.525 | 0.521 | 0.839 | 1 | 1.08 | 1.03 | 0.931 | 0.584
NCI-H650 | 0.366 | 0.425 | 0.475 | 0.545 | 0.374 | 0.424 | 0.428 | 0.4 | 0.352 | 0.947 | 1.15 | 1.08 | 1.18 | 1.11 | – | – | – | – | – | 0.497
NCI-H661 | 0.418 | 0.378 | 0.368 | 0.366 | 0.386 | 0.794 | 0.804 | 0.798 | 0.711 | 0.95 | 0.979 | 0.867 | 0.848 | 0.822 | – | – | – | – | – | 0.891
NCI-H727 | 0.553 | – | – | 0.517 | 0.363 | 0.297 | 0.467 | 0.554 | 0.438 | – | – | – | – | – | 0.339 | 0.276 | 0.163 | 0.154 | 0.165 | 0.353
NCI-H1299 | – | – | – | – | – | – | – | – | – | – | – | – | – | – | 1.1 | 1.15 | 1.17 | 1.19 | 0.975 | –
NCI-H1563 | – | – | – | – | – | 0.448 | 0.417 | 0.409 | 0.426 | 0.773 | 0.827 | 0.86 | 0.756 | 0.764 | – | – | – | – | – | 0.44
NCI-H1623 | – | – | – | – | – | 0.502 | 0.567 | 0.544 | 0.641 | – | – | – | – | – | – | – | – | – | – | 0.66
NCI-H1648 | 0.264 | 0.268 | 0.224 | 0.253 | 0.274 | – | – | – | – | 1.06 | 0.702 | 0.614 | 0.549 | 0.642 | – | – | – | – | – | –
NCI-H1703 | – | – | – | – | – | – | – | – | – | – | – | – | – | – | 0.751 | 0.311 | 0.294 | 0.354 | 0.253 | –
NCI-H2342 | 0.544 | 0.513 | 0.562 | 0.511 | 0.537 | 0.318 | 0.323 | 0.35 | 0.348 | 0.89 | 0.683 | 0.761 | 0.702 | 0.793 | – | – | – | – | – | 0.299
SW 900 | 0.595 | 0.542 | 0.537 | 0.555 | 0.497 | 0.629 | 0.529 | 0.417 | 0.521 | 0.495 | 0.489 | 0.471 | 0.461 | 0.451 | – | – | – | – | – | 0.428
